In patent publication US20210363591A1, “MAPK1 MUTATIONS AND DRUG SENSITIVITY” (The Chinese University of Hong Kong, priority 2020, published 2021):

Columns and labels:
FaDu-MAPK1 WT xenografts = test: Erlotinib response of isogenic FaDu tumor xenografts expressing MAPK1-WT in nude mice
Source text: (§1) FaDu cells expressing MAPK1 WT, MAPK1 p.D321N and MAPK1 p.R135K respectively were inoculated into nude mice subcutaneously (8×10^5 cells per inoculation). Mice with tumor expressing respective MAPK1 WT/mutations were randomized into erlotinib (erlotinib dissolved in 10% 2-Hydroxypropyl-beta-cyclodextrin (HP-j-CD) or vehicle (10% HP-β-CD) treatment groups (N=8 tumors per group). Treatment started when tumors were palpable and reached the size ˜3×3-4×4 mm^2. Erlotinib or the vehicle control were administered by oral gavage (50 mg/kg erlotinib or the corresponding vehicle amount) for 5 consecutive days as indicated by the arrows on the X-axis. FIG. 2B: IHC staining showing membranous p-EGFR expression of these xenografts post erlotinib/vehicle treatments (N>3 per group). […] FIG. 2C: IHC staining showing corresponding pan-cytokeratin expression in these tumors post erlotinib/vehicle treatment (N>3 per group).
The VECTASTAIN Elite ABC Universal PLUS Kit Peroxidase (Horse Anti-Mouse/Rabbit IgG) (Cat: PKK-8200) was used for IHC. […]
Isogenic FaDu cells were infected with MAPK1-WT and MAPK1 mutants by retrovirus and injected into nude mice subcutaneously (8×10^5 cell per mouse, age of 4-5 weeks). […] Tumor volume was monitored and calculated by the equation: length×width^2/2 repeatedly for 5 consecutive days as indicated by the arrows on the X-axis of FIG. 2(a). […]

[1] = system: MAPK1p.D321N mutant tumors (FaDu xenografts); test: Erlotinib response of isogenic FaDu tumor xenografts expressing MAPK1 p.D321N in nude mice
Source text: as §1
(§2) The VECTASTAIN Elite ABC Universal PLUS Kit Peroxidase (Horse Anti-Mouse/Rabbit IgG) (Cat: PKK-8200) was used for IHC. Cytokeratin mouse antibody (DAKO, Cat: M3515, 1:500) and Anti-EGFR (phosphor Y1173) antibody [E124] (Abcam, Cat: ab32578, 1:100) were used as primary antibodies.
(§3) Isogenic FaDu cells were infected with MAPK1-WT and MAPK1 mutants by retrovirus and injected into nude mice subcutaneously (8×10^5 cell per mouse, age of 4-5 weeks). Mice injected with respective infected FaDu cells were randomized into Erlotinib treatment group or Vehicle group (2 tumors born by each mice, 4 mice per group). Treatment started at day 6 after injection with 6 dose per week until day 15. Erlotinib (dissolved in 10% HP-j-CD) or vehicle control were administered orally at a dose of 50 mg/kg. Tumor volume was monitored and calculated by the equation: length×width^2/2 repeatedly for 5 consecutive days as indicated by the arrows on the X-axis of FIG. 2(a). The mice were sacrifice at the end-point of the experiment.

[2] = system: MAPK1p.R135K mutant xenografts (FaDu); test: Erlotinib response of isogenic FaDu tumor xenografts expressing MAPK1 p.R135K in nude mice
Source text: as §1, §2, §3

## C#Cc1cccc(Nc2ncnc3cc(OCCOC)c(OCCOC)cc23)c1 [erlotinib]
FaDu-MAPK1 WT xenografts; erlotinib 50 mg/kg oral gavage, P=0.4080
  change in tumor size vs. vehicle control: did not result in any change in tumor size
FaDu-MAPK1 WT xenografts; erlotinib 50 mg/kg oral, vs. vehicle control
  change in membranous p-EGFR signal in the tumors (IHC): did not result in any change
[1]; MAPK1p.D321N FaDu xenografts post erlotinib 50 mg/kg oral
  tumor-negative (cytokeratin-negative) areas (IHC): concomitant increases in tumor-negative areas
[1]; MAPK1p.D321N FaDu xenografts post erlotinib 50 mg/kg oral, untreated mutants 80-90% positive cells
  membranous p-EGFR signals remaining in the tumors (IHC): less than 20%
[1]; MAPK1p.D321N FaDu xenografts, erlotinib 50 mg/kg oral gavage, P=0.0037
  reduction in tumor volume vs. vehicle treatment: 60.3%
[2]; MAPK1p.R135K FaDu xenografts post erlotinib 50 mg/kg oral
  tumor-negative (cytokeratin-negative) areas (IHC): noticeable increases in tumor-negative areas
[2]; MAPK1p.R135K FaDu xenografts post erlotinib 50 mg/kg oral, 90% in vehicle treated tumors
  percent tumor cells bearing membranous p-EGFR staining (IHC): 50%
[2]; MAPK1p.R135K FaDu xenografts, erlotinib 50 mg/kg oral gavage, trend, P=0.0646
  tumor size reduction vs. vehicle treatment: 28.0%
